Data reported in patent US20230365625A1, “METHODS FOR TREATING AND/OR PREVENTING UNDESIRABLE SEQULAE OF NASAL TURBINOPLASTY OR FUNCTIONAL ENDOSCOPIC SINUS SURGERY” (3-D Matrix, Ltd., priority 2022, published 2023).
Values joined by “and” are separate entries in the source; they are usually repeats but may differ in a detail not shown here. Equal entries are not always repeated.

Tests used:
[1] = test system: Functional Endoscopic Sinus Surgery (FESS) surgical wound; format: in vivo, human
Excerpt: Study design—This study was a retrospective chart review of 94 consecutive human patients who underwent FESS and who were operated on by a single surgeon in a single center in Perth, Western Australia. FIGS. 6A and 6B show a flowchart of patients based on extent of surgery and outcomes. Only patients treated with PuraSinus alone (no other hemostatic agent was used) were included in the analysis. Ethics approval was obtained from St John of Good Health Care Human Research Ethics Committee.
Patient population—The study included adult human patients who underwent FESS procedures and also included patients who underwent FESS in combination with nasal surgery (septoplasty and/or turbinoplasty). Both primary and revision cases were included. Patients were discharged the day after surgery with a recommendation to perform saline nasal irrigations no less than four times a day. Patient characteristics, indication for surgery, extent of surgical intervention, and bleeding and adhesion information was recorded.
Surgical categories—Procedures were performed according to the minimally invasive sinus technique (MIST), including combination of maxillary antrostomy, ethmoidectomies, sphenoidotomies and frontal sinus (Draf Ila, or Draf 111), turbinate reduction and/or septoplasty. FESS procedures were categorized into two groups: complete FESS (including all sinuses—maxillary antrostomy, ethmoidectomy, sphenoidotomy, and frontal sinusotomy) or limited FESS (anything less than complete FESS, usually involves antrostomy and ethmoidectomy). The surgical extent was dictated by the patient's condition and the surgeon's clinical judgement.
Material used—PuraSinus (licensed as PuraStat in Australia, 3D-Matrix)/RADA16-I (SEQ ID NO:1) 2.5% w/v in water is a transparent SAP solution supplied sterile in a pre-filled syringe (available in a 3 mL and 5 mL form) ready for use with a thin application nozzle suited for endoscopic catheter administration. The syringe is stored at between 2° C. and 8° C. At completion of the FESS procedure, PuraSinus was applied to the surgical wound in a thin and even layer as close as possible to the bleeding point. A similar application technique has been outlined previously (M. Lee et al., Int. J. Surg. Case Rep. 41: 461-4 (2017)). […] Tissues treated with the hydrogel were visible via endoscope given the gel's transparency.
Outcomes and objectives—The objectives of this study were to evaluate the effectiveness of PuraSinus in rapidly achieving intraoperative hemostasis and to assess the incidence of delayed bleeding ([…]) and synechiae formation via endoscopic observation of the nasal mucosa at follow-up visits. Primary bleeding was defined as bleeding occurring within 24 hours of surgery.
Data analysis—Statistical analysis was performed using descriptive statistics for continuous variables and patient demographics were reported. The rate of successful hemostasis and incidence of synechiae formation were calculated as a proportion of total patients undergoing FESS.
Adhesions—Nasal endoscopic examination of each patient was performed at a first follow-up visit occurring between 7 and 30 days after surgery (median 15 days, mean±SD 14.0±3.7 days). A subsequent follow-up examination of each patient was performed on average on day 42, ranging from 28 to 79 days post-surgery. […] Debridement of the observed synechiae was performed in these cases in the outpatient setting by either suction (n=13) or scissors (n=10). […] Thus, the desired outcome of intraoperative treatment with PuraSinus (SEQ ID NO:1) in achieving recovery without synechiae formation in these patients was nearly 90% (n=84/94). None of the patients who had required additional intervention for hemostasis subsequently presented with adhesion formation.

[2] = pH of the supplied solution; format: physicochemical; conditions: 2.5% weight/volume solution in water
Excerpt: Details of the Sheep Study—Endoscopic nasal surgery targeting the turbinates and sinuses has become a cornerstone in managing chronic rhinosinusitis. A sheep model was chosen to test treatment of an endoscopic surgical wound deep in the sinuses with PuraSinus (RADA16-I; (SEQ ID NO:1) 2.5% in water) compared to controls as a model for […] in humans both due to the size of the animals and the suitability of the sheep model for comparison with this kind of surgery in humans as described below. PuraSinus (ARTG: 267486; (SEQ ID NO:1)) was supplied by 3-D Matrix Europe SAS as a 2.5% weight/volume solution of synthetic SAPs in water having a pH of about 2.3. Upon contact with physiologic tissue and/or liquid like blood, the pH and/or ionic strength of PuraSinus (SEQ ID NO:1) increases, triggering the self-assembly of the peptides into nanofibers, forming a beta-sheet network similar to an extracellular matrix. At a macroscopic level, the viscous solution forms a hydrogel that seals the opened vessels resulting in hemostasis. PuraSinus (SEQ ID NO:1) is biocompatible and free from infectious agents and is resorbed over time although some residue may remain for ≥30 days. It is supplied sterile in a syringe and delivered through a nozzle supplied by the manufacturer. It is stored at 2-8° C. […]

[3] = 1% in water; cited from earlier work
[4] = in solution before DMEM; RADA16 assumed 2.5% wt/vol, IEIK13 concentration unknown; cited from earlier work
[5] = test system: punch hole injuries to the liver; conditions: pig, in vivo; cited from earlier work

pH [2]: about 2.3
SMILES: CC(=O)N[C@@H](CCCNC(=N)N)C(=O)N[C@@H](C)C(=O)N[C@@H](CC(=O)O)C(=O)N[C@@H](C)C(=O)N[C@@H](CCCNC(=N)N)C(=O)N[C@@H](C)C(=O)N[C@@H](CC(=O)O)C(=O)N[C@@H](C)C(=O)N[C@@H](CCCNC(=N)N)C(=O)N[C@@H](C)C(=O)N[C@@H](CC(=O)O)C(=O)N[C@@H](C)C(=O)N[C@@H](CCCNC(=N)N)C(=O)N[C@@H](C)C(=O)N[C@@H](CC(=O)O)C(=O)N[C@@H](C)C(N)=O [PuraSinus, Ac-RADARADARADARADA-NH2]
Adhesion formation at first follow up visit, patients ([1]; 7-30 days after surgery): 18 | Persisting adhesions, patients ([1]; final outcome, of 23): 5 | Resolved adhesions, patients ([1]; final outcome, of 23): 18 | Adhesion formation, total patients ([1]; full follow-up period, n of 94): 23 | Adhesion (synechiae) formation, rate ([1]; full follow-up period, of 94 patients): 24.5% | Pain at the surgical site ([1]; human, in vivo): all patients expressed comfort with no pain | Patients with no adhesions found ([1]; n of 94): 71 | Adhesion location: Inferior turbinate/septum + medial turbinate/lateral wall, patients ([1]; of 23): 4 | Adhesion location: Inferior turbinate/septum, patients ([1]; of 23): 12 | Adhesion location: Medial turbinate/lateral wall, patients ([1]; of 23): 7 | Debridement by scissors (sharp), patients ([1]; of 23): 10 | Debridement by suction, patients ([1]; of 23): 13 | Patients with adhesion formation: Complete FESS ([1]; of 23): 8 | Patients with adhesion formation: Female ([1]; of 23): 16 | Patients with adhesion formation: Limited FESS ([1]; of 23): 15 | Patients with adhesion formation: Male ([1]; of 23): 7 | Patients free of adhesions, rate ([1]; second follow-up examination, of 94 patients): ~90% and 89.4% | Patients without adhesions ([1]; second follow-up, no adhesions or adhesions easily removed by suction, of 94): 84 and 84/94 | Increase in storage modulus G′ after DMEM treatment relative to before [3]: 43.5 fold | Median loss modulus G″ [4]: 24 Pa | Median storage modulus G′ [4]: 384 Pa | Inflammatory cell infiltration due to the gel in the wound [5]: absence if inflammatory cell infiltration
